# Measured values as given in PMC11850406, “Large-scale screening of HIV-1 T-cell epitopes restricted by 12 prevalent HLA-A allotypes in Northeast Asia and universal detection of HIV-1-specific CD8^+ T cells” (Frontiers in Microbiology, 2025).
# Read-outs that look alike come from different tables or passages of the source. Where no end group is shown, it is not given here.
# Experiments:
# [1] = target: HLA-A2402 (Homo sapiens, UniProt P04439, D101N/D140Y/D185E/E176V/E190D/F33S/G103R/G107R/I119L/I121M/I306V/K335N/L105A/L180Q/L300P/N151K/N90K/Q86E/Q94H/R106L/R138H/R89G/T104I/T345S/V100E/W191G/Y123F); assay: cell-based; assay type: binding; conditions: for inhibition at 5 µM / inhibition at 15 µM / 5-μM inhibition (%) / 15-μM inhibition (%): A2402, 24 h, 4°C, flow cytometry; for inhibition at 5 µM / 5-μM inhibition (%): peptide 5 μM vs FITC-labeled reference peptide 300 nM; for inhibition at 15 µM / 15-μM inhibition (%): peptide 15 μM vs FITC-labeled reference peptide 300 nM
# [2] = target: HLA-A3303 (Homo sapiens, UniProt P04439, A270S/D185E/E176V/E277Q/E87N/F33T/G231S/H175R/I121M/I218V/I322F/K168Q/L300P/L318F/M331R/P217A/Q86R/Q94H/R138Q/T323A/T345S/T97I/V358M); assay: Peptide competitive binding assay, HMy2.CIR cells expressing A3303
# [3] = target: T1, HLA-A0201 (Homo sapiens, UniProt P04439, D140Y/D185E/D98H/E176V/E277Q/G131W/G231S/I119V/I121R/I166T/I218V/L300P/L318F/N151K/N90K/P208A/P217A/Q86G/Q94H/R138H/R169H/T345S); assay: cell-based; assay type: binding; conditions: A0201; for 5-μM inhibition (%) / inhibition at 5 µM: peptide 5 μM vs FITC-labeled reference peptide 300 nM; for 5-μM inhibition (%) / 15-μM inhibition (%) / inhibition at 5 µM / inhibition at 15 µM: 24 h, 4°C, flow cytometry; for 15-μM inhibition (%) / inhibition at 15 µM: peptide 15 μM vs FITC-labeled reference peptide 300 nM; for IC50: class from inhibition at 5 and 15 μM of FITC-labeled reference peptide binding, read-out: Affinity; for inhibition at 5 µM: read-out: 5-μM inhibition (%); for inhibition at 15 µM: read-out: 15-μM inhibition (%)
# T1 construct: expressed in transfected cells; host or cells: HMy2.CIR
# [4] = target: T2, HLA-A0203 (Homo sapiens, UniProt P04439, A173T/D140Y/D185E/D98H/E277Q/G131W/G231S/I119V/I121R/I166T/I218V/L180W/L300P/L318F/N151K/N90K/P208A/P217A/Q86G/Q94H/R138H/R169H/T345S); assay: cell-based; assay type: binding; conditions: A0203; for 5-μM inhibition (%) / inhibition at 5 µM: peptide 5 μM vs FITC-labeled reference peptide 300 nM; for 5-μM inhibition (%) / 15-μM inhibition (%) / inhibition at 5 µM / inhibition at 15 µM: 24 h, 4°C, flow cytometry; for 15-μM inhibition (%) / inhibition at 15 µM: peptide 15 μM vs FITC-labeled reference peptide 300 nM; for inhibition at 5 µM: read-out: 5-μM inhibition (%); for inhibition at 15 µM: read-out: 15-μM inhibition (%)
# T2 construct: expressed in transfected cells; host or cells: HMy2.CIR
# [5] = target: T3, HLA-A1101 (Homo sapiens, UniProt P04439, A114D/D185E/E176A/F33Y/L180Q/S129P/T187R); assay: cell-based; assay type: binding; conditions: for inhibition at 5 µM / 5-μM inhibition (%): peptide 5 μM vs FITC-labeled reference peptide 300 nM; for inhibition at 5 µM / inhibition at 15 µM / 5-μM inhibition (%) / 15-μM inhibition (%): 24 h, 4°C, flow cytometry; for inhibition at 5 µM: read-out: 5-μM inhibition (%); for inhibition at 15 µM / 15-μM inhibition (%): peptide 15 μM vs FITC-labeled reference peptide 300 nM; for inhibition at 15 µM: read-out: 15-μM inhibition (%)
# T3 construct: expressed in transfected cells; host or cells: HMy2.CIR
# [6] = A3303, peptide 5 μM vs FITC-labeled reference peptide 300 nM, 24 h, 4°C, flow cytometry
# [7] = A3303, peptide 15 μM vs FITC-labeled reference peptide 300 nM, 24 h, 4°C, flow cytometry
# [8] = A1101, class from inhibition at 5 and 15 μM of FITC-labeled reference peptide binding, read-out: Affinity
sequence,measurement,setting,value
MYSPVSILDI [Peptide P53],IC50,[1],< 5 µM
same,inhibition at 5 µM,[1],75.5%
same,inhibition at 15 µM,[1],98.1%
NITGILLTR [Peptide P107],5-μM inhibition (%),[2]; [6],34.61%
same,15-μM inhibition (%),[2]; [7],49.22%
NYTNQIYEI [Peptide P47],IC50,[1],< 5 µM
same,inhibition at 5 µM,[1],87.5%
same,inhibition at 15 µM,[1],94.5%
PYNTPVFAI [Peptide P63],IC50,[1],5 to 15 µM
same,inhibition at 5 µM,[1],25.7%
same,inhibition at 15 µM,[1],55.6%
QMQEDVISL [Peptide P4],5-μM inhibition (%),[3],10.81%
same,15-μM inhibition (%),[3],44.70%
same,5-μM inhibition (%),[4],0.00%
same,15-μM inhibition (%),[4],0.00%
QTNSAILMQR [Peptide P105],5-μM inhibition (%),[2]; [6],29.22%
same,15-μM inhibition (%),[2]; [7],45.63%
QTVYALFYR [Peptide P108],5-μM inhibition (%),[2]; [6],35.63%
same,15-μM inhibition (%),[2]; [7],40.50%
RQGTISFNF [Peptide P61],5-μM inhibition (%),[1],12.82%
same,15-μM inhibition (%),[1],41.47%
RTAHTNDVK [Peptide P39],IC50,[5]; [8],< 5 µM
same,inhibition at 5 µM,[5]; A1101,60.4%
same,inhibition at 15 µM,[5]; A1101,86.2%
SILRGGKLDK [Peptide P30],5-μM inhibition (%),[5]; A1101,19.77%
same,15-μM inhibition (%),[5]; A1101,47.09%
SLAEGEIII [Peptide P3],IC50,[3],5 to 15 µM
same,inhibition at 5 µM,[3],26.1%
same,inhibition at 15 µM,[3],66.2%
same,IC50,"[4]; class from inhibition at 5 and 15 μM of FITC-labeled reference peptide binding, read-out: Affinity",5 to 15 µM
same,inhibition at 5 µM,[4],0.12%
same,inhibition at 15 µM,[4],51.1%
SLVDTIAIAV [Peptide P1],IC50,[3],5 to 15 µM
same,inhibition at 5 µM,[3],38%
same,inhibition at 15 µM,[3],78.5%
same,inhibition at 5 µM,[4],28.2%
same,inhibition at 15 µM,[4],31.9%
SSWSNKSQK [Peptide P24],5-μM inhibition (%),[5]; A1101,20.55%
same,15-μM inhibition (%),[5]; A1101,36.55%
SVIKQACPK [Peptide P21],IC50,[5],5 to 15 µM
same,inhibition at 5 µM,[5]; A1101,29.7%
same,inhibition at 15 µM,[5]; A1101,68.9%
SVPLDESFRK [Peptide P42],IC50,[5],< 5 µM
same,inhibition at 5 µM,[5]; A1101,89.9%
same,inhibition at 15 µM,[5]; A1101,93.8%
SVQCTHGIK [Peptide P25],IC50,[5]; [8],< 5 µM
same,inhibition at 5 µM,[5]; A1101,61.4%
same,inhibition at 15 µM,[5]; A1101,85.6%
TFYVDGAASR [Peptide P110],inhibition at 5 µM,[2]; [6],78.2%
same,inhibition at 15 µM,[2]; [7],90.1%
same,IC50,[2]; read-out: Affinity,< 5 µM
TTLFCASDAK [Peptide P28],IC50,[5],< 5 µM
same,inhibition at 5 µM,[5]; A1101,78.4%
same,inhibition at 15 µM,[5]; A1101,92.2%
TVQPIQLPEK [Peptide P35],IC50,[5],< 5 µM
same,inhibition at 5 µM,[5]; A1101,88.7%
same,inhibition at 15 µM,[5]; A1101,93.9%
TYQIYQEPF [Peptide P58],IC50,[1],< 5 µM
same,inhibition at 5 µM,[1],54.1%
same,inhibition at 15 µM,[1],95.3%
VQMAVFIHNF [Peptide P64],IC50,[1],5 to 15 µM
same,inhibition at 5 µM,[1],31.2%
same,inhibition at 15 µM,[1],50.2%
VTENFNMWK [Peptide P26],IC50,[5],< 5 µM
same,inhibition at 5 µM,[5]; A1101,86.6%
same,inhibition at 15 µM,[5]; A1101,92.9%
WWMEYWQATW [Peptide P57],IC50,[1],5 to 15 µM
same,inhibition at 5 µM,[1],29.2%
same,inhibition at 15 µM,[1],70.7%
WYIKIFIII [Peptide P48],5-μM inhibition (%),[1],1.56%
same,15-μM inhibition (%),[1],6.91%
WYIKIFIMI [Peptide P51],5-μM inhibition (%),[1],3.34%
same,15-μM inhibition (%),[1],29.97%
YMLKHLVWA [Peptide P7],5-μM inhibition (%),[3],8.94%
same,15-μM inhibition (%),[3],16.50%
same,5-μM inhibition (%),[4],3.83%
same,15-μM inhibition (%),[4],19.15%
YWQATWIPEW [Peptide P60],IC50,[1],< 5 µM
same,inhibition at 5 µM,[1],97.5%
same,inhibition at 15 µM,[1],97.8%
